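Compound exposure: 48 hours, 5 concentrations, 96-well plates. Here, GI50 denotes the concentration required for 50% inhibition of growth.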 The source made the active and inactive calls. No stated cut-off is given here; in the data, active = GI50 up to about 1.1 µM and inactive = higher.
Legend:
Experiment in all cases: inhibition of tumour cell growth, NCI panel, 48 h
786-0 = test system: 786-0
A549 = test system: A549
CAKI-1 = test system: CAKI-1
CCRF-CEM = test system: CCRF-CEM
HCT-116 = test system: HCT-116
HCT-15 = test system: HCT-15
IGROV-1 = test system: IGROV-1
KM12 = test system: KM12
NCI-H460 = test system: NCI-H460
OVCAR-3 = test system: OVCAR-3
RPMI-8226 = test system: RPMI-8226
SF-539 = test system: SF-539
SK-MEL-28 = test system: SK-MEL-28
SN12C = test system: SN12C
SNB-19 = test system: SNB-19
SW-620 = test system: SW-620
UACC-62 = test system: UACC-62

Compound	GI50 (786-0)	GI50 (A549)	GI50 (CAKI-1)	GI50 (CCRF-CEM)	GI50 (HCT-116)	GI50 (HCT-15)	GI50 (IGROV-1)	GI50 (KM12)	GI50 (NCI-H460)	GI50 (OVCAR-3)	GI50 (RPMI-8226)	GI50 (SF-539)	GI50 (SK-MEL-28)	GI50 (SN12C)	GI50 (SNB-19)	GI50 (SW-620)	GI50 (UACC-62)
Cc1cc(Cl)ccc1NC(=O)/C(=N\NC(C)(C)C)C(C#N)c1nc(-c2ccc([N+](=O)[O-])cc2)cs1 (stereo unspecified)	> 100 µM (inactive)	> 100 µM (inactive)	> 100 µM (inactive)	> 100 µM (inactive)	> 100 µM (inactive)	> 100 µM	> 100 µM (inactive)	> 100 µM (inactive)	> 100 µM (inactive)	> 100 µM (inactive)	> 100 µM (inactive)	> 100 µM (inactive)	> 100 µM (inactive)	> 100 µM (inactive)	> 100 µM (inactive)	> 100 µM (inactive)	> 100 µM (inactive)
Cc1cc(Cl)cc2c1NC(=O)C2(O)CC(=O)c1ccc(Br)cc1 (stereo unspecified)	38.2 µM (inactive)	> 100 µM (inactive)	> 100 µM (inactive)	18.6 µM (inactive)	56.9 µM (inactive)	57 µM	66.8 µM (inactive)	46.9 µM (inactive)	55.7 µM (inactive)	63 µM (inactive)	35 µM (inactive)	48.3 µM (inactive)	35.6 µM (inactive)	> 77.1 µM (inactive)	71 µM (inactive)	> 90.6 µM (inactive)	21.6 µM (inactive)
CO[C@H](c1ccccc1)[C@H](C)N(C)c1ccc2ccccc2c1C1=NC(C)(C)CO1	16.2 µM (inactive)	15.9 µM (inactive)	> 10 µM (inactive)	15.4 µM (inactive)	10.8 µM (inactive)	14.6 µM	33.1 µM (inactive)	17.1 µM (inactive)	16 µM (inactive)	15.9 µM (inactive)	15.6 µM (inactive)	16.2 µM (inactive)	18.3 µM (inactive)	18 µM (inactive)	24.8 µM (inactive)	15.9 µM (inactive)	33.1 µM (inactive)
CCOC(=O)c1c[nH]c2c(ccc3nn(C)nc32)c1=O	> 100 µM (inactive)	34 µM (inactive)	> 100 µM (inactive)	34 µM (inactive)	24.9 µM (inactive)	41 µM	> 100 µM (inactive)	> 100 µM (inactive)	96.4 µM (inactive)	> 100 µM (inactive)	25.6 µM (inactive)	–	> 100 µM (inactive)	> 100 µM (inactive)	> 100 µM (inactive)	20.1 µM (inactive)	> 100 µM (inactive)
CC1=C(C(=O)Nc2cc(=O)n(C)c(=O)n2C)C(c2cccc([N+](=O)[O-])c2)C(C(=O)Nc2cc(=O)n(C)c(=O)n2C)=C(C)N1	> 100 µM (inactive)	> 100 µM (inactive)	> 100 µM (inactive)	> 100 µM (inactive)	–	–	> 100 µM (inactive)	> 100 µM (inactive)	62.7 µM (inactive)	> 100 µM (inactive)	62.5 µM (inactive)	26.7 µM (inactive)	> 100 µM (inactive)	> 100 µM (inactive)	> 100 µM (inactive)	> 100 µM (inactive)	–
COC(=O)CC(NC(=O)OCc1ccccc1)C(C(=O)OCc1ccccc1)C1(C)OCCO1 (stereo unspecified)	51.4 µM (inactive)	32.4 µM (inactive)	–	26.6 µM (inactive)	40.4 µM (inactive)	37.8 µM	40 µM (inactive)	–	34.7 µM (inactive)	53.8 µM (inactive)	22.1 µM (inactive)	54.6 µM (inactive)	66.5 µM (inactive)	47.4 µM (inactive)	50 µM (inactive)	47.6 µM (inactive)	18.7 µM (inactive)
C/C(=N/N)c1ccc2[nH]c3c(C)cc([N+](=O)[O-])c(C)c3c2c1	4.6 µM (inactive)	11.1 µM (inactive)	> 10 µM (inactive)	3.13 µM (inactive)	4.09 µM (inactive)	9.55 µM	–	> 10 µM (inactive)	5.87 µM (inactive)	14.9 µM (inactive)	8.97 µM (inactive)	4.76 µM (inactive)	6.07 µM (inactive)	3.95 µM (inactive)	14.4 µM (inactive)	7.53 µM (inactive)	–
CC1(O)C(C)(O)C2(C)O[Te]3(OC12C)OC1(C)C(C)(O)C(C)(O)C1(C)O3 (stereo unspecified)	56.8 µM (inactive)	6.67 µM (inactive)	–	2.41 µM (inactive)	–	11.5 µM	12.3 µM (inactive)	23.7 µM (inactive)	3.32 µM (inactive)	20.2 µM (inactive)	15.5 µM (inactive)	29.1 µM (inactive)	16.2 µM (inactive)	23.1 µM (inactive)	28.1 µM (inactive)	> 10 µM (inactive)	35.6 µM (inactive)
N#C/C(=C\c1c(O)cc(O)cc1O)C(N)=O	> 100 µM (inactive)	> 100 µM (inactive)	> 100 µM (inactive)	> 100 µM (inactive)	> 100 µM (inactive)	> 100 µM	–	> 100 µM (inactive)	> 100 µM (inactive)	> 100 µM (inactive)	> 100 µM (inactive)	> 100 µM (inactive)	> 100 µM (inactive)	> 100 µM (inactive)	> 100 µM (inactive)	> 100 µM (inactive)	–
O=C1CCCC2COc3ccc(O)c1c32 (stereo unspecified)	> 100 µM (inactive)	> 100 µM (inactive)	–	> 100 µM (inactive)	–	> 100 µM	> 100 µM (inactive)	> 100 µM (inactive)	> 100 µM (inactive)	> 100 µM (inactive)	> 100 µM (inactive)	> 100 µM (inactive)	> 100 µM (inactive)	> 100 µM (inactive)	> 100 µM (inactive)	–	> 100 µM (inactive)
O=C1CCC2(CC1)SCCCS2	> 100 µM (inactive)	> 100 µM (inactive)	> 100 µM (inactive)	> 100 µM (inactive)	–	> 100 µM	> 100 µM (inactive)	> 100 µM (inactive)	> 100 µM (inactive)	> 100 µM (inactive)	> 100 µM (inactive)	–	> 100 µM (inactive)	> 100 µM (inactive)	> 100 µM (inactive)	> 100 µM (inactive)	> 100 µM (inactive)
Cc1c(Cl)c2ccccc2n1S(=O)(=O)c1ccccc1	59.6 µM (inactive)	41.3 µM (inactive)	58.7 µM (inactive)	48.5 µM (inactive)	39.2 µM (inactive)	37.3 µM	> 100 µM (inactive)	37.9 µM (inactive)	44.6 µM (inactive)	45 µM (inactive)	27.8 µM (inactive)	54.1 µM (inactive)	> 100 µM (inactive)	–	78.7 µM (inactive)	38.5 µM (inactive)	87.3 µM (inactive)
COc1ccccc1/C=C/C(=O)c1sc(-c2cccnc2)nc1C	> 100 µM (inactive)	> 100 µM (inactive)	> 100 µM (inactive)	84.3 µM (inactive)	–	> 100 µM	> 100 µM (inactive)	65.2 µM (inactive)	> 100 µM (inactive)	> 100 µM (inactive)	26.3 µM (inactive)	> 100 µM (inactive)	> 100 µM (inactive)	> 100 µM (inactive)	–	> 100 µM (inactive)	> 100 µM (inactive)
Cn1ccnc1CCc1c(Cl)cccc1Cl	> 100 µM (inactive)	> 100 µM (inactive)	> 100 µM (inactive)	> 100 µM (inactive)	> 100 µM (inactive)	> 100 µM	> 100 µM (inactive)	> 100 µM (inactive)	> 100 µM (inactive)	> 100 µM (inactive)	> 100 µM (inactive)	> 100 µM (inactive)	> 100 µM (inactive)	> 100 µM (inactive)	–	> 100 µM (inactive)	> 100 µM (inactive)
O=C1N[C@H](Cc2c[nH]cn2)C(=O)N2CCC[C@@H]12	> 100 µM (inactive)	> 100 µM (inactive)	> 100 µM (inactive)	> 100 µM (inactive)	–	> 100 µM	> 100 µM (inactive)	> 100 µM (inactive)	> 100 µM (inactive)	> 100 µM (inactive)	> 100 µM (inactive)	–	> 100 µM (inactive)	> 100 µM (inactive)	> 100 µM (inactive)	> 100 µM (inactive)	> 100 µM (inactive)
CCCC(C)C[C@@H](C)CC(C)/C=C(\C)c1oc(=O)c(C)c(O)c1C.CC[C@@H](C)C[C@@H](C)C[C@@H](C)/C=C(\C)c1oc(=O)c(C)c(O)c1C (stereo partly specified)	14.5 µM (inactive)	17.3 µM (inactive)	13.4 µM (inactive)	–	17.6 µM (inactive)	–	–	20.4 µM (inactive)	9.29 µM (inactive)	6.78 µM (inactive)	–	15.4 µM (inactive)	14.8 µM (inactive)	15.3 µM (inactive)	14.2 µM (inactive)	17.7 µM (inactive)	–
C[N+](C)(C)CC(=O)N/N=C(/Cc1nc2ccc([N+](=O)[O-])cc2nc1O)C(=O)Nc1cc(C(F)(F)F)ccc1Cl	> 100 µM (inactive)	> 100 µM (inactive)	> 100 µM (inactive)	66.7 µM (inactive)	> 100 µM (inactive)	–	> 100 µM (inactive)	> 100 µM (inactive)	> 100 µM (inactive)	> 100 µM (inactive)	63.1 µM (inactive)	> 100 µM (inactive)	> 100 µM (inactive)	> 100 µM (inactive)	> 100 µM (inactive)	> 100 µM (inactive)	94.2 µM (inactive)
Cc1no[n+]([O-])c1/C=N/NS(=O)(=O)c1ccccc1	> 100 µM (inactive)	> 100 µM (inactive)	> 100 µM (inactive)	> 10 µM (inactive)	> 100 µM (inactive)	> 100 µM	> 100 µM (inactive)	> 100 µM (inactive)	–	> 100 µM (inactive)	> 100 µM (inactive)	> 100 µM (inactive)	> 100 µM (inactive)	> 100 µM (inactive)	> 100 µM (inactive)	> 100 µM (inactive)	> 100 µM (inactive)
